{"source": "patent US5792466A", "about": "“Mimetic insect kinin analogs for insect control” (The United States of America, as represented by the …, priority 1996, dated 1998)", "key": {"[1]": {"system": "isolated Malpighian tubules of the cricket Acheta domesticus", "experiment": "Cricket Malpighian tubule secretion bioassay", "format": "cell-based", "conditions": "for Cricket Malpighian tubule fluid secretion Maximum response (%): percentage of the response to a supermaximal dose (10 nM) of achetakinin-I, Aib analogs", "from_the_text": "Crickets were reared as described (Clifford et al., 1977, Ann. Entomol. Soc. Am., 70:69-74) and fed a diet of turkey starter crumbs. Water was provided ad lib. Malpighian tubules were removed from 6-12-day-old adult virgin females. Single tubules were isolated in vitro as described (Coast, G. M., 1988, Physiol. Entomol., 13:381-391). After a 40-min equilibration period, the bathing fluid was changed and the rate of secretion, in picoliters per millimeter length of tubule per minute (pl/mm/min), was determined over 40 min (control rate). Thereafter, the bathing fluid was exchanged for one containing the assay material and the rate of secretion was determined over an additional 40-min period (experimental rate). Diuretic activity was calculated as the difference between control and experimental rates, and results are expressed as a percentage of the response obtained with a supermaximal dose (10 nM) of achetakinin-I assayed alongside the test analogues. All experiments were performed at room temperature (21°-24° C.) (Coast et al., 1990, ibid)."}, "[2]": {"system": "angiotensin converting enzyme (ACE) from the housefly Musca domestica", "experiment": "ACE enzyme hydrolysis trials", "format": "in vitro ADME", "conditions": "pH 8.3, 37° C., over 120 minutes", "protocol": "Musca ACE (Mr, 67,000) was purified from a soluble extract of adults as described elsewhere (Cornell et al., J. Biol. Chem., in press; Lamango and Isaac, J. Biol. Chem., in press) and yielded enzyme which appeared as a single band by SDS-PAGE. Unless otherwise stated, peptides (12-750 μM, final concentration) were incubated with Musca ACE in 100 mM Tris/HCl, pH 8.3 in the presence of 10 μM ZnCl2 and 0.3M NaCl at 37° C. Reactions (15 μl) were terminated either by heating to 100° C. for 5 min or by the addition of 5 μl of 8% (v/v) TFA, followed by centrifugation (13000 g, Microcentaur) for 2 min and diluted to 100 μl with 0.1% (v/v) TFA before HPLC analysis.\nHPLC analysis was performed using a Pharmacia SuperPac Pep-S column (250 mm×4 mm, internal diameter) packed with 5 μm ODS particles. The solvent system comprised elution with 5% acetonitrile in 0.1% (v/v) trifluoroacetic acid for 3 min, followed by a linear increase of the acetonitrile component from 3 to 41% in 11 min (total run time of 14 min)."}, "[3]": {"system": "isolated Leucophaea maderae cockroach hindgut", "experiment": "Cockroach hindgut myotropic bioassay", "format": "cell-based", "conditions": "for potency in the cockroach hindgut myotropic assay relative to the most potent of the achetakinins (AK-IV): comparison of threshold concentrations; for Cockroach (Leucophaea maderae) hindgut contraction threshold (pM) ± (S.D.): minimum concentration evoking observable change in contractions, Aib analogs; for threshold activities on the isolated cockroach hindgut bioassay: values in M", "protocol": "Leucophaea maderae cockroaches were taken from stock colonies maintained at 27° C. and fed dry dog food ad lib. Cockroach hindguts, free of central nervous system (CNS) tissue, were dissected, immersed in saline, and prepared for recording of myogenic activity as previously described [Holman et al., 1991, Insect Biochem., 21(1):107-112]. Threshold concentrations were determined for each analogue by adding a known quantity of peptide (dissolved in 0.5 ml bioassay saline) to the bioassay chamber containing the hindgut and observing the response on a Gould 2200S oscillograph recorder. The quantity of the peptide analogues was calculated from the values obtained for Phe in the amino acid analysis. The threshold concentration was defined as the minimum concentration of peptide in the chamber required to evoke an observable change in the frequency (50%) or amplitude of contractions (5%) within 1 min and sustained for 3 min. Threshold concentrations were obtained from five cockroach hindguts on 5 consecutive days for each peptide. Quantitative data for dose-response plots were obtained as previously described (Holman et al., 1991, ibid)."}, "[4]": {"system": "isolated Leucophaea maderae cockroach hindgut", "conditions": "cited from earlier work; for Cockroach (Leucophaea maderae) hindgut contraction threshold (pM) ± (S.D.): naturally occurring achetakinins, Holman et al., 1990, reference (12); for potency in hindgut myotropic assay relative to parent or natural insect kinins: literature (Holman et al., 1987; Nachman et al., 1994)"}, "[5]": {"system": "isolated Malpighian tubules of the cricket Acheta domesticus", "conditions": "cited from earlier work; for pEC50 / Cricket Malpighian tubule fluid secretion Maximum response (%): naturally occurring achetakinins; for pEC50: read-out: Cricket (Acheta domesticus) Malpighian tubule fluid secretion EC50; for Cricket Malpighian tubule fluid secretion Maximum response (%): literature reference (6)"}, "[6]": {"system": "angiotensin converting enzyme (ACE) from the housefly Musca domestica", "conditions": "cited from earlier work"}, "[7]": {"conditions": "Lamango et al., Peptides, submitted"}}, "note": "pEC50: −log10 of the molar value. Entries after “also recorded” stand apart in the source; their conditions may differ. Read-outs that look alike come from different tables or passages of the source. Ends that are not written are not given here. Peptide text beside a SMILES is read from it. QP = not defined here"}
{"compound": "CC(C)(NC(=O)[C@H](Cc1ccccc1)NC(=O)[C@@H](N)Cc1ccccc1)C(=O)N[C@@H](Cc1c[nH]c2ccccc12)C(=O)NCC(N)=O", "note": "[Phe--Phe--Aib--Trp--Gly--NH2] (HELM PEPTIDE1{F.F.[Aib].W.G.[am]}$$$$V2.0)", "values": [{"measurement": "potency in the Malpighian tubule assay relative to the most potent naturally occurring achetakinin (AK-IV) / endogenous insect kinins", "setting": "[1]; comparison of EC50 values", "value": "greater potency than the endogenous insect kinins"}, {"measurement": "Cricket Malpighian tubule fluid secretion Maximum response (%)", "setting": "[1]", "value": 99, "unit": "%"}, {"measurement": "hydrolysis by angiotensin converting enzyme (ACE)", "setting": "[2]", "value": "complete resistance to ACE; also recorded: complete resistance to hydrolysis"}, {"measurement": "potency in the cockroach hindgut myotropic assay relative to the most potent of the achetakinins (AK-IV)", "setting": "[3]", "value": "roughly half as potent"}, {"measurement": "potency in the cockroach hindgut myotropic assay relative to the most potent of the achetakinins (AK-IV)", "setting": "[3]; listed as first analog", "value": "one half as potent"}, {"measurement": "Cockroach (Leucophaea maderae) hindgut contraction threshold (pM) ± (S.D.)", "setting": "[3]", "value": 100, "unit": "pM"}, {"measurement": "threshold activities on the isolated cockroach hindgut bioassay", "setting": "[3]", "value": 100, "unit": "pM"}]}
{"compound": "CC(C)(NC(=O)[C@H](Cc1ccccc1)NC(=O)[C@H](Cc1ccccc1)NC(=O)[C@H](CCCCNC(=O)[C@@H]1CCC(=O)N1)NC(=O)[C@@H]1CCC(=O)N1)C(=O)N[C@@H](Cc1c[nH]c2ccccc12)C(=O)NCC(N)=O", "note": "[pGlu--Lys(pGlu)--Phe--Phe--Aib--Trp--Gly--NH2] (HELM PEPTIDE1{[Glp].K.F.F.[Aib].W.G.[am]}|PEPTIDE2{[Glp]}$PEPTIDE1,PEPTIDE2,2:R3-1:R2$$$V2.0)", "values": [{"measurement": "Cricket Malpighian tubule fluid secretion Maximum response (%)", "setting": "[1]", "value": 103, "unit": "%"}, {"measurement": "potency in the cockroach hindgut myotropic assay relative to the most potent of the achetakinins (AK-IV)", "setting": "[3]", "value": "three orders of magnitude less potent"}, {"measurement": "Cockroach (Leucophaea maderae) hindgut contraction threshold (pM) ± (S.D.)", "setting": "[3]", "value": "28,000 pM"}, {"measurement": "threshold activities on the isolated cockroach hindgut bioassay", "setting": "[3]", "value": 28000, "unit": "pM"}]}
{"compound": "CC(C)(NC(=O)[C@H](Cc1ccccc1)NC(=O)[C@H](Cc1ccccc1)NC(=O)[C@H](CCCCN)NC(=O)[C@@H]1CCC(=O)N1)C(=O)N[C@@H](Cc1c[nH]c2ccccc12)C(=O)NCC(N)=O", "note": "[pGlu--Lys--Phe--Phe--Aib--Trp--Gly--NH2] (HELM PEPTIDE1{[Glp].K.F.F.[Aib].W.G.[am]}$$$$V2.0)", "values": [{"measurement": "Cricket Malpighian tubule fluid secretion Maximum response (%)", "setting": "[1]", "value": 101, "unit": "%"}, {"measurement": "potency in the cockroach hindgut myotropic assay relative to the most potent of the achetakinins (AK-IV)", "setting": "[3]", "value": "an order of magnitude more potent"}, {"measurement": "Cockroach (Leucophaea maderae) hindgut contraction threshold (pM) ± (S.D.)", "setting": "[3]", "value": 3.5, "unit": "pM"}, {"measurement": "threshold activities on the isolated cockroach hindgut bioassay", "setting": "[3]", "value": 3.5, "unit": "pM"}]}
{"compound": "AFHSWG-NH2 [AK-V, A--Phe--His--Ser--Trp--Gly--NH2]", "values": [{"measurement": "Cockroach (Leucophaea maderae) hindgut contraction threshold (pM) ± (S.D.)", "setting": "[4]", "value": 43, "unit": "pM"}, {"measurement": "pEC50", "setting": "[5]; Coast et al., 1990", "value": 10.74}, {"measurement": "Cricket Malpighian tubule fluid secretion Maximum response (%)", "setting": "[5]", "value": 88, "unit": "%"}]}
{"compound": "ALPFSSWG-NH2 [AK-III, ALP--Phe--Ser--Ser--Trp--Gly--NH2]", "values": [{"measurement": "Cockroach (Leucophaea maderae) hindgut contraction threshold (pM) ± (S.D.)", "setting": "[4]", "value": 270, "unit": "pM"}, {"measurement": "pEC50", "setting": "[5]; Coast et al., 1990", "value": 9.49}, {"measurement": "Cricket Malpighian tubule fluid secretion Maximum response (%)", "setting": "[5]", "value": 108, "unit": "%"}]}
{"compound": "AYFSPWG-NH2 [AK-II, AY--Phe--Ser--Pro--Trp--Gly--NH2]", "values": [{"measurement": "Cockroach (Leucophaea maderae) hindgut contraction threshold (pM) ± (S.D.)", "setting": "[4]", "value": 48, "unit": "pM"}, {"measurement": "pEC50", "setting": "[5]; Coast et al., 1990", "value": 10.66}, {"measurement": "Cricket Malpighian tubule fluid secretion Maximum response (%)", "setting": "[5]", "value": 91, "unit": "%"}]}
{"compound": "DPGFSSWG-NH2 [LK-II, DPG--Phe--Ser--Ser--Trp--Gly--NH2]", "values": [{"measurement": "hydrolysis by ACE", "setting": "[6]; [7]", "value": "hydrolyze"}]}
{"compound": "FYPWG-NH2 [Phe--Tyr--Pro--Trp--Gly--NH2]", "values": [{"measurement": "potency in hindgut myotropic assay relative to parent or natural insect kinins", "setting": "[4]", "value": "equipotent with the parent nonapeptide"}, {"measurement": "potency in cricket Malpighian tubule secretion assay relative to parent nonapeptide", "setting": "[5]; Coast et al., 1990", "value": "equipotent with the parent nonapeptide"}]}
{"compound": "KFFPWG-NH2 [Lys--Phe--Phe--Pro--Trp--Gly--NH2]", "values": [{"measurement": "potency in hindgut myotropic assay relative to parent or natural insect kinins", "setting": "[4]", "value": "more active than the pentapeptide core and/or the naturally occurring insect kinins"}]}
{"compound": "NFKFNPWG-NH2 [AK-IV, NFK--Phe--Asn--Pro--Trp--Gly--NH2]", "values": [{"measurement": "Cockroach (Leucophaea maderae) hindgut contraction threshold (pM) ± (S.D.)", "setting": "[4]", "value": 180, "unit": "pM"}, {"measurement": "pEC50", "setting": "[5]; Coast et al., 1990", "value": 10.62}, {"measurement": "Cricket Malpighian tubule fluid secretion Maximum response (%)", "setting": "[5]", "value": 96, "unit": "%"}]}
{"compound": "NNANVFYPWG-NH2 [Cus-DP-II, NNANV-Phe--Tyr--Pro--Trp--Gly--NH2]", "values": [{"measurement": "hydrolysis by ACE", "setting": "[6]; [7]", "value": "hydrolyze"}]}
{"compound": "QP--Phe--His--Ser--Trp--Gly--NH2 ({QP}-FHSWG-NH2; reading uncertain; also: printed as QP--Phe--His--Ser--Trp--Gly--NH2) [Cus-DP-I]", "values": [{"measurement": "hydrolysis by ACE", "setting": "[6]; [7]", "value": "hydrolyze"}]}
{"compound": "SGADFYPWG-NH2 [AK-I, SGAD--Phe--Tyr--Pro--Trp--Gly--NH2]", "values": [{"measurement": "Cockroach (Leucophaea maderae) hindgut contraction threshold (pM) ± (S.D.)", "setting": "[4]", "value": 82, "unit": "pM"}, {"measurement": "pEC50", "setting": "[5]; Coast et al., 1990", "value": 10.11}, {"measurement": "Cricket Malpighian tubule fluid secretion Maximum response (%)", "setting": "[5]", "value": 86, "unit": "%"}]}
{"compound": "SKYVSQK-Phe--Phe--Ser--Trp--Gly--NH2 [Cus-DP-III]", "values": [{"measurement": "hydrolysis by ACE", "setting": "[6]", "value": "hydrolyze"}]}
